From patent US7855232B2, “Organoselenium compound for cancer chemoprevention” (LKT Laboratories, Inc., priority 2001, dated 2010)
Marks after values point to notes of the source that are not given here.

Tests used:
Type in all cases: in vivo, Female A/J mice
[1] = test system: Glutathione S-Transferase; assay: Glutathione S-transferase (GST) activity in tissue cytosol of treated mice, CDNB substrate; details: for Ratio Test/con (GST): gavage; for GST act.: gavage in corn oil
Method: The activity of cytosolic was assayed according to the method of Habig et al. using 1-chloro-2,4-dinitrobenzene (CDNB) as the substrate. Habig et al, J. Biol. Chem. 249:7130-7139 (1974). The complete solution contains, in a total volume of 2.0 mL, 0.1 M phosphate buffer, pH 6.5, 5 mM glutathione, 1 mM CDNB, and 20 μL of the cytosol. The reaction was monitored at 340 nm in a Beckman Model DU65 UV-VIS spectrophotometer. Assays were performed at 30° C. Complete assay mixture without the cytosolic enzyme was used as the reference blank. Data as analyzed by the Student's “t” test and P values were obtained in comparison to the control.

GSH = assay: Glutathione (GSH) concentration in tissues of treated mice, HPLC; details: for Ratio Test/con (GSH): gavage; for GSH conc.: gavage in corn oil
Method: GSH was quantitated by modification of the procedure Siller-Cepeda et al. Plant Cell Physiol. 32:1179-1185 (1991). Aliquots of tissue homogenates were mixed with equal volumes of 20% PCA containing 2 mM BPDS. Vortex, centrifuge at 7800×g for 15 minutes at 4° C. and 250 μl supernatant transferred into a microfuge tube containing 25 μl of γ-glu-glu as internal standard. The samples were carboxymethylated with 25 μl of 100 mM iodoacetic acid dissolved in 0.2 mM m-cresol purple sodium salt solution. The pH of the solution was adjusted to 9-10 by adding 350 μl of KOH (2M)-KHCO3 (2.4 M) mixture and incubated in the dark for 15 minutes. After carboxymethylation, the samples were derivatized with 500 μl of 1% dinitrofluorobenzene (DNFB) and kept in the dark at 4° C. overnight. The samples were centrifuged at 13,000×g for 15 minutes, filtered through 0.2 μm filter, and were analyzed with a SHIMADZU two-pump gradient HPLC system. Samples were injected by a SHIMADZU SIL-10AV Autoinjector onto a Varian 3-aminopropyl MICROSORB-MV column (4.6×250 mm) operated at ambient temperature with a flow rate of 1 ml/min. Absorbance of the dinitrophenyl derivatives was monitored at 365 nm. The amount of GSH was calculated from a standard curve using γ-glu-glu as internal standard.

[2] = test system: UDP-Glucuronosyltransferase (UDP-GT); assay: UDP-glucuronosyltransferase (UDP-GT) activity in liver microsomes of treated mice, o-aminophenol substrate; details: for Ratio Test/con (UDP-GT): gavage; for UDP-GT activity (column head prints GSH conc.): gavage in corn oil
Method: Microsomal samples were assayed for enzymatic conjugation by modifying the procedure of Zakim et al., Methods of Biochemical Analysis, ed. David Glick, 21:1-37, (1973). using o-aminophenol as the substrate. The complete assay solution contains, in a total volume of 500 μl, 0.25 M phosphate buffer (pH 7.6), 0.002 M o-aminophenol, 0.05 M UDPGA, 0.125 M magnesium chloride and 100 μl microsomes. The mixture was incubated for 30 minutes. Reactions were stopped by the addition of 500 μl of TCA-sodium phosphate reagent. The precipitated protein was removed, 100 μl of 0.05% sodium nitrite was added to 950 μl of the supernatent solution and allowed to stand for 5 minutes. 100 μl of 0.5% ammonium sulfamate was added, after 5 minutes. 100 μl of 0.12% N-(-1-naphthyl)ethylenediamine dihydrochloride was added and incubated for 2 hours in the dark; and the difference in the optical density between the blanks and the samples were recorded at 555 nm in a Beckman model DU65 UV-VIS spectrophotometer. The UDP-GT activity was calculated using the extinction coefficient 29 mM-1 cm-1 for the coupled product.

[3] = colon, dose 0.02 mmol/Kg body weight
[4] = colon, dose 0.04 mmol/Kg body weight
[5] = forestomach, dose 0.02 mmol/Kg body weight
[6] = forestomach, dose 0.04 mmol/Kg body weight
[7] = liver, dose 0.02 mmol/Kg body weight
[8] = liver, dose 0.04 mmol/Kg body weight
[9] = lung, dose 0.02 mmol/Kg body weight
[10] = lung, dose 0.04 mmol/Kg body weight
[11] = small intestinal mucosa, dose 0.02 mmol/Kg body weight
[12] = small intestinal mucosa, dose 0.04 mmol/Kg body weight

Row | SMILES | Ratio Test/con (GST) [1, 3] | GST act. [1, 3] | Ratio Test/con (GST) [1, 4] | GST act. [1, 4] | Ratio Test/con (GST) [1, 5] | GST act. [1, 5] [μmol/min mg protein] | Ratio Test/con (GST) [1, 6] | GST act. [1, 6] [μmol/min mg protein] | Ratio Test/con (GST) [1, 7] | GST act. [1, 7] | Ratio Test/con (GST) [1, 8] | GST act. [1, 8] | Ratio Test/con (GST) [1, 9] | GST act. [1, 9] | Ratio Test/con (GST) [1, 10] | GST act. [1, 10] [μmol/min mg protein] | Ratio Test/con (GST) [1, 11] | GST act. [1, 11] | Ratio Test/con (GST) [1, 12] | GST act. [1, 12] | also measured
1 | N#C[Se]Cc1ccc[se]1 [(3) SMSC, 2-selenophenyl methylene selenocynate] | 1.08 | 0.70 ± 0.05 μmol/min mg protein | 1.06 | 0.69 ± 0.09 μmol/min mg protein | 0.8 | 0.89 ± 0.22 | 1.01 | 1.12 ± 0.19 | 0.81 | 1.04 ± 0.18 ^g μmol/min mg protein | 1.58 | 2.02 ± 0.33 ^e μmol/min mg protein | 1.18 | 0.40 ± 0.03 ^f μmol/min mg protein | 1.00 | 0.34 ± 0.06 | 0.86 | 0.19 ± 0.5 μmol/min mg protein | 0.91 | 0.20 ± 0.02 μmol/min mg protein | Ratio Test/con (GSH) (GSH; [7]): 0.98; GSH conc. (GSH; [7]): 3.49 ± 0.90 μmol/gm tissue weight; Ratio Test/con (GSH) (GSH; [8]): 1.38; GSH conc. (GSH; [8]): 4.89 ± 0.57^c μmol/gm tissue weight; Ratio Test/con (GSH) (GSH; [11]): 0.89; GSH conc. (GSH; [11]): 1.88 ± 0.4 μmol/gm tissue weight; Ratio Test/con (GSH) (GSH; [12]): 1.00; Ratio Test/con (UDP-GT) ([2]; dose 0.02 mmol/Kg body weight): 1.52; UDP-GT activity (column head prints GSH conc.) ([2]; dose 0.02 mmol/Kg body weight): 6.15 ± 1.20 ^d nmol/min/mg protein; Ratio Test/con (UDP-GT) ([2]; dose 0.04 mmol/Kg body weight): 2.36; UDP-GT activity (column head prints GSH conc.) ([2]; dose 0.04 mmol/Kg body weight): 9.56 ± 4.23 ^d nmol/min/mg protein
2 | N#C[Se]Cc1ccc(C[Se]C#N)[se]1 [(4) SDMSC, selenophenyl-2,5-di-methylene selenocyanate] | 1.13 | 0.45 ± 0.02 ^g μmol/min mg protein | 1.10 | 0.44 ± 0.04 μmol/min mg protein | 1.35 | 1.05 ± 0.28 | 1.21 | 0.94 ± 0.18 | 1.06 | 1.20 ± 0.11 ^g μmol/min mg protein | 1.50 | 1.69 ± 0.18 ^e μmol/min mg protein | 1.23 | 0.58 ± 0.08 μmol/min mg protein | 1.17 | 0.55 ± 0.07 | 1.00 | 0.34 ± 0.01 μmol/min mg protein | 1.06 | 0.36 ± 0.02 μmol/min mg protein | Ratio Test/con (GSH) (GSH; [7]): 0.93; GSH conc. (GSH; [7]): 3.58 ± 1.86 μmol/gm tissue weight; Ratio Test/con (GSH) (GSH; [8]): 1.39; GSH conc. (GSH; [8]): 5.34 ± 1.36 μmol/gm tissue weight; Ratio Test/con (UDP-GT) ([2]; dose 0.02 mmol/Kg body weight): 2.30; UDP-GT activity (column head prints GSH conc.) ([2]; dose 0.02 mmol/Kg body weight): 10.17 ± 2.37 ^c nmol/min/mg protein; Ratio Test/con (UDP-GT) ([2]; dose 0.02 mmol/Kg body weight, listed as SDMSC 4): 2.67; Ratio Test/con (UDP-GT) ([2]; dose 0.04 mmol/Kg body weight): 2.43; UDP-GT activity (column head prints GSH conc.) ([2]; dose 0.04 mmol/Kg body weight): 10.75 ± 2.04 ^d nmol/min/mg protein
3 | [Se]=C=NCc1ccc(CN=C=[Se])[se]1 [(7) SDMISC, selenophenyl-2,5-di-methylene isoselenocyanate] | 1.23 | 0.80 ± 0.03 ^c μmol/min mg protein | 1.34 | 0.87 ± 0.03 ^e μmol/min mg protein | 1.10 | 1.22 ± 0.21 | 1.14 | 1.27 ± 0.28 | 2.39 | 3.06 ± 0.41 ^e μmol/min mg protein | 2.34 | 3.00 ± 0.13 ^c μmol/min mg protein | 1.31 | 0.45 ± 0.04 ^f μmol/min mg protein | 1.16 | 0.40 ± 0.04 | 2.26 | 0.50 ± 0.14 ^e μmol/min mg protein | 2.82 | 0.62 ± 0.04 ^c μmol/min mg protein | dose response of GST induction (in words) ([1]; colon): dose response induction; Ratio Test/con (GST) ([1]; small intestinal mucosa, dose 0.04 mmol/Kg body weight, listed as SDMISC 7): 2.83; Ratio Test/con (GSH) (GSH; [7]): 1.30; GSH conc. (GSH; [7]): 4.63 ± 1.30 μmol/gm tissue weight; Ratio Test/con (GSH) (GSH; [8]): 1.20; GSH conc. (GSH; [8]): 4.25 ± 1.02 μmol/gm tissue weight; Ratio Test/con (GSH) (GSH; [11]): 1.36; GSH conc. (GSH; [11]): 2.86 ± 0.14^c μmol/gm tissue weight; Ratio Test/con (GSH) (GSH; [12]): 1.90; GSH conc. (GSH; [12]): 4.00 ± 0.35^d μmol/gm tissue weight; Ratio Test/con (UDP-GT) ([2]; dose 0.02 mmol/Kg body weight): 2.56; UDP-GT activity (column head prints GSH conc.) ([2]; dose 0.02 mmol/Kg body weight): 10.37 ± 1.99 ^d nmol/min/mg protein; Ratio Test/con (UDP-GT) ([2]; dose 0.04 mmol/Kg body weight): 1.60; UDP-GT activity (column head prints GSH conc.) ([2]; dose 0.04 mmol/Kg body weight): 6.46 ± 1.95 nmol/min/mg protein
